Measurements reported in ChEMBL document CHEMBL1148683, “Synthesis and monoamine transporter affinity of front bridged tricyclic 3beta-(4'-halo or 4'-methyl)phenyltropanes bearing methylene or carbomethoxymethylene on the bridge to the 2beta-position” (Bioorg Med Chem Lett, 2006).

Columns and labels:
[1] = biological target: T1, Sodium-dependent noradrenaline transporter (Homo sapiens, UniProt P23975); experiment: Displacement of [3H]nisoxetine from human NET transfected in HEK293 cells; format: cell-based
T1 sequence (P23975 whole entry): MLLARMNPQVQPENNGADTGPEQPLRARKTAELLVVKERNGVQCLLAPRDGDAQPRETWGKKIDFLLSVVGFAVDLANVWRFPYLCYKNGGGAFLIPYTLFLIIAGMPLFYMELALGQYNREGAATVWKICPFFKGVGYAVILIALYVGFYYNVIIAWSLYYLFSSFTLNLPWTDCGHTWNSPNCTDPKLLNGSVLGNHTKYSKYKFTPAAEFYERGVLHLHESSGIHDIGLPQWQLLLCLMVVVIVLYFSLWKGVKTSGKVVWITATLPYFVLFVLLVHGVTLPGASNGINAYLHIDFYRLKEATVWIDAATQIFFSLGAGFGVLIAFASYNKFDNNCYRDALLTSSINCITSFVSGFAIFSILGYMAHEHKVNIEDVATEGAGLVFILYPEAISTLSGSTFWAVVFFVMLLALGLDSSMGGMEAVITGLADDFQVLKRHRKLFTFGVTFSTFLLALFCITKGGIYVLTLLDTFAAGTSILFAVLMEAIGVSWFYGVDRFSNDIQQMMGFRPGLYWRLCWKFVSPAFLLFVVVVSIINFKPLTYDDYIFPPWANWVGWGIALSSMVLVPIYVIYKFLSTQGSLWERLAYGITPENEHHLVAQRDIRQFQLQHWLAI

[2] = biological target: Sodium-dependent serotonin transporter (Homo sapiens, UniProt P31645); experiment: Displacement of [3H]citalopram from human SERT transfected in HEK293 cells; format: cell-based
Sodium-dependent serotonin transporter, sequence (P31645 whole entry): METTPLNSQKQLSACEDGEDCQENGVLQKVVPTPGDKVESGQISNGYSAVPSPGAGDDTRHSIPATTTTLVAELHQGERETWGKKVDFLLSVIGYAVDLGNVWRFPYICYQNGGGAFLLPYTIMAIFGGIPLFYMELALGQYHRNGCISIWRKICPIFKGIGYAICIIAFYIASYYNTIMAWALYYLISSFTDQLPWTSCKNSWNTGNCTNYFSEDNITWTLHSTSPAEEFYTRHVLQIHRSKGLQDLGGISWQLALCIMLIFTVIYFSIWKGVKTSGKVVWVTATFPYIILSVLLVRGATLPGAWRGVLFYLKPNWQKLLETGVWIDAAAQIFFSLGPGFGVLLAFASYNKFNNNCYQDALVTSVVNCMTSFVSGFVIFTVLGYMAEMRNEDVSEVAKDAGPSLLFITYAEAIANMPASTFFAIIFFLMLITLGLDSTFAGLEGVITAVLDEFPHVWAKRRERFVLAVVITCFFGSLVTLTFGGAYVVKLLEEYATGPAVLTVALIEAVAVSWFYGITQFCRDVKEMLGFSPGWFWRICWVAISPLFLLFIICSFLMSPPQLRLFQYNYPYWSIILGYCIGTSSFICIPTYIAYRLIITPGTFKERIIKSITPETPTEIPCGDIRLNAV

[3] = biological target: Sodium-dependent dopamine transporter (Homo sapiens, UniProt Q01959); experiment: Displacement of [125I]RTI-55 from human DAT transfected in HEK293 cells; format: cell-based
Sodium-dependent dopamine transporter, sequence (Q01959 whole entry): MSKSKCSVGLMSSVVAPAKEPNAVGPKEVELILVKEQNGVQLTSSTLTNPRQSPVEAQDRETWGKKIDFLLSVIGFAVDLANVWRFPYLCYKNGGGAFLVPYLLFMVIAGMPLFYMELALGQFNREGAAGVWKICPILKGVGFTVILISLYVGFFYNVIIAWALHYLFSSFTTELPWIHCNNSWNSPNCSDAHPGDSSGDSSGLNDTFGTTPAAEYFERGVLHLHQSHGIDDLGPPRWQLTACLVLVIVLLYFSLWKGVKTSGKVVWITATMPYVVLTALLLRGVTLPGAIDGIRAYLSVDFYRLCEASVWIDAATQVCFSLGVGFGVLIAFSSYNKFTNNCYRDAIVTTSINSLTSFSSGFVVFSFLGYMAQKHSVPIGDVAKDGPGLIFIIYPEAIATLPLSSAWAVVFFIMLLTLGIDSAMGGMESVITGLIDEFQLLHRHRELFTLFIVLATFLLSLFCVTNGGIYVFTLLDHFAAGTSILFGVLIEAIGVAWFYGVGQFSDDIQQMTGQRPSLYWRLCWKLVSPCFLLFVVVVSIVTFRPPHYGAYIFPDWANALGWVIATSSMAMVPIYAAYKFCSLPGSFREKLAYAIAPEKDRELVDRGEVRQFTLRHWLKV

[4] = biological target: Monoamine transporters; serotonin & dopamine (Homo sapiens) (UniProt P31645+Q01959); experiment: Selectivity for human SERT over DAT; format: protein assay
Monoamine transporters; serotonin & dopamine (Homo sapiens), sequence (P31645 whole entry, looked up): as the sequence (P31645 whole entry) above
Monoamine transporters; serotonin & dopamine (Homo sapiens), sequence (Q01959 whole entry, looked up): as the sequence (Q01959 whole entry) above

[5] = biological target: Serotonin and norepinephrine transporters (SERT/NET) (Homo sapiens) (UniProt P31645+P23975); experiment: Selectivity for human SERT over NET; format: protein assay
Serotonin and norepinephrine transporters (SERT/NET) (Homo sapiens), sequence (P23975 whole entry, looked up): as the sequence (P23975 whole entry) above
Serotonin and norepinephrine transporters (SERT/NET) (Homo sapiens), sequence (P31645 whole entry, looked up): as the sequence (P31645 whole entry) above

Rhesus monkey [6] = experiment: Selective uptake in putamen over occipital cortex of iv dosed rhesus monkey after 105 mins by microPET imaging assay; format: ADME, organism-based, Macaca mulatta; settings: in vivo, 1.75 h
Rhesus monkey [7] = experiment: Selective uptake in midbrain over occipital cortex of iv dosed rhesus monkey after 105 mins by microPET imaging assay; format: ADME, organism-based, Macaca mulatta, Brain; settings: in vivo, 1.75 h
Rhesus monkey [8] = experiment: Selective uptake in pons over occipital cortex of iv dosed rhesus monkey after 105 mins by microPET imaging assay; format: ADME, organism-based, Macaca mulatta; settings: in vivo, 1.75 h
Rhesus monkey [9] = experiment: Selective uptake in thalamus over occipital cortex of iv dosed rhesus monkey after 105 mins by microPET imaging assay; format: ADME, organism-based, Macaca mulatta; settings: in vivo, 1.75 h
Rhesus monkey [10] = experiment: Selective uptake in caudate over occipital cortex of iv dosed rhesus monkey after 105 mins by microPET imaging assay; format: ADME, organism-based, Macaca mulatta; settings: in vivo, 1.75 h
Rhesus monkey [11] = experiment: Selective uptake in medulla over occipital cortex of iv dosed rhesus monkey after 105 mins by microPET imaging assay; format: ADME, organism-based, Macaca mulatta; settings: in vivo, 1.75 h
Rhesus monkey [12] = experiment: Selective uptake in cerebellum over occipital cortex of iv dosed rhesus monkey after 25 mins by microPET imaging assay; format: ADME, organism-based, Macaca mulatta; settings: in vivo
[13] = biological target: T1, Sodium-dependent noradrenaline transporter; experiment: Inhibition of (-)-[3H]NE uptake at NET

SMILES	Ki [1]	Ki [2]	Ki [3]	also measured
COC(=O)/C=C1/CN2C3CCC2C1C(c1ccc(Cl)cc1)C3 (stereo unspecified)	13 nM	18.7 nM	4.54 nM	–
C=C1CN2C3CCC2C1C(c1ccc(I)cc1)C3 (stereo unspecified)	5.87 nM	0.09 nM	8.48 nM	Selectivity ratio [4]: 94; Selectivity ratio [5]: 65
C=C1CN2C3CCC2C1C(c1ccc(C)cc1)C3 (stereo unspecified)	17.3 nM	7.77 nM	41 nM	Ratio (Rhesus monkey [6]): 1.83; Ratio (Rhesus monkey [7]): 1.53; Ratio (Rhesus monkey [8]): 1.52; Ratio (Rhesus monkey [9]): 1.48; Ratio (Rhesus monkey [10]): 1.47; Ratio (Rhesus monkey [11]): 1.36; Ratio (Rhesus monkey [12]): 1.39; IC50 [13]: 2.2 nM
C=C1CN2C3CCC2C1C(c1ccc(Cl)cc1)C3 (stereo unspecified)	4.84 nM	0.82 nM	12.3 nM	–
C=C1CN2C3CCC2C1C(c1ccc(Br)cc1)C3 (stereo unspecified)	2.94 nM	0.28 nM	41.9 nM	–
COC(=O)/C=C1/CN2C3CCC2C1C(c1ccc(C)cc1)C3 (stereo unspecified)	25.5 nM	98.3 nM	13.2 nM	–
COC(=O)/C=C1/CN2C3CCC2C1C(c1ccc(Br)cc1)C3 (stereo unspecified)	12.5 nM	5.63 nM	2.94 nM	–
